Data taken from ChEMBL document CHEMBL4476883, “Hydroxy formamide derivatives and their use” (2017).

Tests used:
[1] = molecular target: T1, Bone morphogenetic protein 1 (Homo sapiens, UniProt P13497); assay: Inhibition of C-terminal FLAG-6x-His epitope tagged and N-terminal human RAGE signal sequence tagged human BMP1 (23 to 721 amino acids) expressed in CHO-E1A cells pre-incubated for 10 mins before promyostatin peptide substrate addition and measured after 60 mins using 0.5 nM BMP1 by FRET based assay; format: cell-based
T1 sequence (P13497 whole entry): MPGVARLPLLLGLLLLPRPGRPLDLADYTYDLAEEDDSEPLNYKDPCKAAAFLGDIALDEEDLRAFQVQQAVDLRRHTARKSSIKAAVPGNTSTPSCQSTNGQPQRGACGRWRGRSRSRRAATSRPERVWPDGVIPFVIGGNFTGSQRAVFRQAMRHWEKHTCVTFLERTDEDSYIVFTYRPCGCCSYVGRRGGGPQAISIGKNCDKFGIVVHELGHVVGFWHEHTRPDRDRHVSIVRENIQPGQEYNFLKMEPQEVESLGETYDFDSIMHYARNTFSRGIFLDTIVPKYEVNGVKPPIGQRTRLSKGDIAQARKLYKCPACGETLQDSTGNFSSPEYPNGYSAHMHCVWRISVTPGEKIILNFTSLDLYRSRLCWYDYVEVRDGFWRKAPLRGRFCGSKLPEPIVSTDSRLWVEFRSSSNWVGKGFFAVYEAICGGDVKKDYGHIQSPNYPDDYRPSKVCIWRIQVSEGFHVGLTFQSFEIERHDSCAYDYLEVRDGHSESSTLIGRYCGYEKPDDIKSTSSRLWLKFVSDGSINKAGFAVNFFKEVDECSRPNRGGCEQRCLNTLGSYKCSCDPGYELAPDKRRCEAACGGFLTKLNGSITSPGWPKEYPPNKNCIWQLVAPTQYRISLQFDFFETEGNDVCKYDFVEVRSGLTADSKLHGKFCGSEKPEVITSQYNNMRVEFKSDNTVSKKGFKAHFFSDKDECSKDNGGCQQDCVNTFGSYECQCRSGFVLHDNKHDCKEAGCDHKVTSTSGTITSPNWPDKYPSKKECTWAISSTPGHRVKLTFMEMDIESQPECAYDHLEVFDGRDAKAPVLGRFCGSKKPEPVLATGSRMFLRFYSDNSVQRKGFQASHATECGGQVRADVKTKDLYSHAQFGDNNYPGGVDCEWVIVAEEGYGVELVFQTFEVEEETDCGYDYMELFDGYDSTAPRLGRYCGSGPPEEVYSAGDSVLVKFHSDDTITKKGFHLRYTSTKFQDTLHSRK

[2] = molecular target: T1, Bone morphogenetic protein 1; assay: Inhibition of C-terminal FLAG-6x-His epitope tagged and N-terminal human RAGE signal sequence tagged human BMP1 (23 to 721 amino acids) expressed in CHO-E1A cells pre-incubated for 10 mins before promyostatin peptide substrate addition and measured after 30 mins using 50 nM BMP1 by FRET based assay; format: cell-based
Tolloid-like protein 1 = Tolloid-like protein 1 (Homo sapiens, UniProt O43897, I156V/N221S/V284A); assay: Inhibition of recombinant human TLL1 I156V/N221S/V284A mutant expressed in CHOE1A cells pre-incubated for 10 mins before promyostatin peptide substrate addition and measured after 60 mins by FRET based assay; format: cell-based
Chain of Tolloid-like protein 1 (O43897 148-1013 I156V/N221S/V284A limits assumed): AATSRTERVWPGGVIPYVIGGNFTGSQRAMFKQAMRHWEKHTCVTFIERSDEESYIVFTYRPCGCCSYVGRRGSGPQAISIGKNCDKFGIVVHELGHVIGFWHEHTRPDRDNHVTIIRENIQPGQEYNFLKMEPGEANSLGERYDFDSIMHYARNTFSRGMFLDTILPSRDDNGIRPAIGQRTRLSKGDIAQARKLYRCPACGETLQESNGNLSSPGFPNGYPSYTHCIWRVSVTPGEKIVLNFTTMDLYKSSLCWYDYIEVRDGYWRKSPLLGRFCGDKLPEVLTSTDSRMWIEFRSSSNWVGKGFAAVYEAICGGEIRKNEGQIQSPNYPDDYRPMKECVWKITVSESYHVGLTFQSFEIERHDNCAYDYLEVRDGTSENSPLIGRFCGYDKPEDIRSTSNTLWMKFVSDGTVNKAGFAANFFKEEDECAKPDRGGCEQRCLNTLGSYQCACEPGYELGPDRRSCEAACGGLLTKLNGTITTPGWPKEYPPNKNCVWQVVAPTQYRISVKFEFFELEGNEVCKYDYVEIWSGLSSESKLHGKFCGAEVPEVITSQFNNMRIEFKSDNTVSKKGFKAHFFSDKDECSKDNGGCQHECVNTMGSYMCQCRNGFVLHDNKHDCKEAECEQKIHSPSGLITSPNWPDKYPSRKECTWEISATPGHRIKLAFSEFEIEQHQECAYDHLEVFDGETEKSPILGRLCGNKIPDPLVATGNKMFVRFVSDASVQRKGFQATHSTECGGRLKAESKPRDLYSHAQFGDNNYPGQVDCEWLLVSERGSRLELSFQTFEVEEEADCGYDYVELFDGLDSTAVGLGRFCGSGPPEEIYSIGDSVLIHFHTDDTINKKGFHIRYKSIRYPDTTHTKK

Tolloid-like protein 2 = molecular target: T2, Tolloid-like protein 2 (Homo sapiens, UniProt Q9Y6L7); assay: Inhibition of C-terminal Avi-6x-His epitope tagged and N-terminal human RAGE signal sequence tagged recombinant human TLL2 (26 to 1015 amino acids) expressed in CHOE1A cells incubated for 60 mins with promyostatin peptide substrate by FRET based assay; format: cell-based
T2 sequence (Q9Y6L7 whole entry): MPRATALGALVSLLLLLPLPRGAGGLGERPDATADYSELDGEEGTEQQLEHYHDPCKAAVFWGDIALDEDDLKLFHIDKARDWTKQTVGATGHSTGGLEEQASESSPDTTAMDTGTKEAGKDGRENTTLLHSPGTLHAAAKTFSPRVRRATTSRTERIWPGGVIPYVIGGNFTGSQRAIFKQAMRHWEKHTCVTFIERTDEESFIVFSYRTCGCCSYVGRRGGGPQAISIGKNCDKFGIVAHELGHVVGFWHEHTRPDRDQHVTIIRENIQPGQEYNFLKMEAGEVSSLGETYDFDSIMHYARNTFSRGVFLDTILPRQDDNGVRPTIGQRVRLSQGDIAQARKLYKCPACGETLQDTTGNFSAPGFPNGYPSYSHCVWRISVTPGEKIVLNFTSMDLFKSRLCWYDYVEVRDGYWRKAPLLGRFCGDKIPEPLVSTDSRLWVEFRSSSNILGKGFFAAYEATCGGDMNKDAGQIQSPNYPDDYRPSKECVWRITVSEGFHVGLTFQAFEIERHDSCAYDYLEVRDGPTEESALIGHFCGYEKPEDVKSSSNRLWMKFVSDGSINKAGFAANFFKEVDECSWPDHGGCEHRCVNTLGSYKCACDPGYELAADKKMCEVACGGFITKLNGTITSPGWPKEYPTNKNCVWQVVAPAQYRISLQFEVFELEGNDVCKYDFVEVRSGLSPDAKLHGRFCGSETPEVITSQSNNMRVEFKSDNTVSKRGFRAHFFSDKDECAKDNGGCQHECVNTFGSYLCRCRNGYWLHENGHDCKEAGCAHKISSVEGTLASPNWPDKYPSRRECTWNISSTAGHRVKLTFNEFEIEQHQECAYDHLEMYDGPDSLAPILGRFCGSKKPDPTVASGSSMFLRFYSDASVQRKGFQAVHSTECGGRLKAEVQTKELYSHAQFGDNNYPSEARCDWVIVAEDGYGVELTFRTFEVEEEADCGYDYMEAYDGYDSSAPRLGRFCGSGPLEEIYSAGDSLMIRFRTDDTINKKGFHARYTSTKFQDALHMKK

[3] = Reduction in PICP levels in human cardiac fibroblasts incubated for 24 to 48 hrs by ELISA; format: functional
[4] = Reduction in mature collagen deposition levels in human cardiac fibroblasts incubated for 24 to 48 hrs by immunostaining based assay; format: functional

SMILES	IC50 [1] [nM]	IC50 [2] [nM]	IC50 (Tolloid-like protein 1) [nM]	IC50 (Tolloid-like protein 2) [nM]	IC50 [3] [nM]	IC50 [4] [nM]
CCCCC[C@@H](C(=O)NCNC(=O)c1cccc(-c2cc(OCC)cc(C(=O)O)c2)n1)[C@@H](CC)N(O)C=O	< 126	< 251	< 398	< 631	< 20000	< 1580
CCCCC[C@H](CN(O)C=O)C(=O)NCNC(=O)c1cccc(-c2ncc(C)o2)c1	< 126	< 251	< 398	< 631	< 20000	–
CCCCC[C@@H](C(=O)NCNC(=O)c1cccc(-c2ccc(OC)c(C(=O)O)c2)n1)[C@@H](CC)N(O)C=O	< 126	< 251	< 398	< 631	< 20000	–
O=CN(O)C[C@@H](CCc1ccccc1)C(=O)NCNC(=O)c1cccc(-c2ccccc2)n1	< 126	< 251	< 398	< 631	< 20000	–
CCCCC[C@H](CN(O)C=O)C(=O)NCNC(=O)c1cccc(-c2cccc(OCC(F)(F)F)c2)c1	< 126	< 251	< 398	< 631	< 20000	–
CCCCC[C@@H](C(=O)NCNC(=O)c1cccc(-c2ccc(C(=O)N[C@@H](CC(=O)O)C(=O)O)c(Cl)c2)n1)[C@@H](CC)N(O)C=O	< 126	< 251	< 398	< 631	< 20000	–
CCCCC[C@H](CN(O)C=O)C(=O)NCNC(=O)c1cccc(-c2ccc(F)c(OC)c2)n1	< 126	< 251	< 398	< 631	< 20000	–
O=CN(O)C[C@@H](CCc1ccccc1)C(=O)NCNC(=O)c1cccc(-c2cccc(B(O)O)c2)c1	< 126	< 251	< 398	< 631	< 20000	–
CCCCC[C@H](CN(O)C=O)C(=O)NCNC(=O)c1cccc(-c2nc(C)c(C)o2)c1	< 126	< 251	< 398	< 631	< 20000	–
CCCCC[C@@H](C(=O)NCNC(=O)c1cccc(-c2cccc(OC)c2F)c1F)[C@@H](CC)N(O)C=O	< 126	< 251	< 398	< 631	< 20000	–
CCCCC[C@@H](C(=O)NCNC(=O)c1cccc(-c2ccc(C(=O)N[C@@H](CC(=O)O)C(=O)O)c(OCC(=O)O)c2)c1)[C@@H](CC)N(O)C=O	< 126	< 251	< 398	< 631	< 20000	–
CCCCC[C@H](CN(O)C=O)C(=O)NCNC(=O)c1cccc(-c2ccc(C(F)(F)F)cc2)n1	< 126	< 251	< 398	< 631	< 20000	–
CCCCC[C@H](CN(O)C=O)C(=O)NCNC(=O)c1cccc(-c2cc(OC)nnc2OC)c1	< 126	< 251	< 398	< 631	< 20000	–
CCCCC[C@@H](C(=O)NCNC(=O)c1cccc(-c2ccc(C(=O)N[C@@H](CC(=O)O)C(=O)O)c(F)c2)n1)[C@@H](CC)N(O)C=O	< 126	< 251	< 398	< 631	< 20000	–
